US20050261129A1, “Method of protecting plants from bacterial and fungal diseases” (priority 2003, published 2005)

test system: tomato seedlings; assay: Tomato SAR trial, greenhouse foliar vigour (phytotoxicity) ratings (Example 9); conditions: 0, severe foliar injury; 10, foliage green in excellent health; each treatment followed by BONZI 5 ppm
Experimental: Tomatoes were seeded in a green house and the SAR compositions applied three separate times, first as a drench nine days after seeding, the second at the 2-leaf stage 15 days after seeding, and finally as a foliar application in the filed approximately two months from seeding. Each treatment was followed up by a 5 ppm application of a plant growth regulator comprising paclobutrazol available under the name BONZI from Syngenta, Greensboro, N.C. […] This procedure was replicated four times in a randomized complete block design. […] Phytotoxicity ratings were also taken in green house prior to transplanting.

SMILES	Greenhouse Evaluations: Foliar Vigour Ratings (0-10)
CC1(C)CC[C@]2(C(=O)O)CC[C@]3(C)C(=CC[C@@H]4[C@@]5(C)CC[C@H](O)[C@@](C)(CO)[C@@H]5CC[C@]43C)[C@@H]2C1 [Sapogenin 5, Hederagenin]	4.3
COC(=O)[C@@]1(C)CC[C@]2(C(=O)O)CC[C@]3(C)C(=CCC4[C@@]5(C)CCC(O)[C@@](C)(CO)C5CC[C@]43C)C2C1 (stereo partly drawn) [Sapogenin 1, Phytolaccagenic acid]	5.7
CC1(C)CC[C@]2(C(=O)O)CC[C@]3(C)C(=CC[C@@H]4[C@@]5(C)CC[C@H](O)[C@@](C)(CO)[C@@H]5CC[C@]43C)[C@@H]2C1 [Sapogenin 2, Hederagenin]	5.3
CC1(C)CC[C@]2(C(=O)O)CC[C@]3(C)C(=CC[C@@H]4[C@@]5(C)CC[C@H](O)C(C)(C)[C@@H]5CC[C@]43C)[C@@H]2C1 [Sapogenin 3, Oleanolic acid]	4.7
COC(=O)[C@@]1(C)CC[C@]2(C(=O)O)CC[C@]3(C)C(=CCC4[C@@]5(C)CCC(O)[C@@](C)(CO)C5CC[C@]43C)C2C1 (stereo partly drawn) [Sapogenin 4, Phytolaccagenic acid]	4.3
CC1(C)CC[C@]2(C(=O)O)CC[C@]3(C)C(=CC[C@@H]4[C@@]5(C)CC[C@H](O)C(C)(C)[C@@H]5CC[C@]43C)[C@@H]2C1 [Sapogenin 6, Oleanolic acid]	4.3
